Laboratory results: patent US20170188607A1, “SOLUBILIZATION OF A SWEET MODULATOR AND FLAVOR” (Firmenich SA, priority 2014, published 2017)

Test: Amount of compound remaining in solution in acidic syrup kept at 3° C., measured by UV spectroscopy as a function of time
Assay type: physicochemical
Procedure: A concentrated solution 1 of (S)-1-(3-(((4-amino-2,2-dioxido-1H-benzo[c][1,2,6]thiadiazin-5-yl)oxy)methyl)piperidin-1-yl)-3-methylbutan-1-one at 0.3% (w/w) (3000 ppm) was prepared in water. pH was adjusted to 11 using NaOH to form (S)-1-(3-(((4-amino-2,2-dioxido-1H-benzo[c][1,2,6]thiadiazin-5-yl)oxy)methyl)piperidin-1-yl)-3-methylbutan-1-one sodium salt and obtain an homogeneous solution. Next, a syrup was prepared by mixing an aqueous solution of High Fructose Corn Syrup (HFCS), citric acid and deionized water. The final syrup contained 34% fructose, 0.68% citric acid, 0.1% sodium citrate and 65.22% water, with a pH of 2. […] The sample was kept at 3° C. and the amount of (S)-1-(3-(((4-amino-2,2-dioxido-1H-benzo[c][1,2,6]thiadiazin-5-yl)oxy)methyl)piperidin-1-yl)-3-methylbutan-1-one was measured by UV spectroscopy as a function of time. The amount of (S)-1-(3-(((4-amino-2,2-dioxido-1H-benzo[c][1,2,6]thiadiazin-5-yl)oxy)methyl)piperidin-1-yl)-3-methylbutan-1-one was reduced to 28 ppm after 1 week and first crystals were visually observed. After 12 weeks 1.7 ppm of (S)-1-(3-(((4-amino-2,2-dioxido-1H-benzo[c][1,2,6]thiadiazin-5-yl)oxy)methyl)piperidin-1-yl)-3-methylbutan-1-one remained in solution.
(§1) A concentrated solution 1 of (S)-1-(3-(((4-amino-2,2-dioxido-1H-benzo[c][1,2,6]thiadiazin-5-yl)oxy)methyl)piperidin-1-yl)-3-methylbutan-1-one at 0.3% (w/w) (3000 ppm) was prepared in water. pH was adjusted to 11 using NaOH to form (S)-1-(3-(((4-amino-2,2-dioxido-1H-benzo[c][1,2,6]thiadiazin-5-yl)oxy)methyl)piperidin-1-yl)-3-methylbutan-1-one sodium salt and obtain an homogeneous solution. Next, a syrup was prepared by mixing an aqueous solution of HFCS, citric acid, PVP 55k and deionized water. The final syrup contained 34% fructose, 0.68% citric acid, 0.1% sodium citrate, 0.03% PVP and 65.19% water. […] The sample was kept at 3° C. and the amount of (S)-1-(3-(((4-amino-2,2-dioxido-1H-benzo[c][1,2,6]thiadiazin-5-yl)oxy)methyl)piperidin-1-yl)-3-methylbutan-1-one was measured by UV spectroscopy as a function of time. The amount of (S)-1-(3-(((4-amino-2,2-dioxido-1H-benzo[c][1,2,6]thiadiazin-5-yl)oxy)methyl)piperidin-1-yl)-3-methylbutan-1-one was maintained at 30 ppm for 4 weeks, before a slight decrease and appearance of few crystals. After 12 weeks 9.6 ppm of (S)-1-(3-(((4-amino-2,2-dioxido-1H-benzo[c][1,2,6]thiadiazin-5-yl)oxy)methyl)piperidin-1-yl)-3-methylbutan-1-one remained in solution.
as §1, with “PVP 55k, maltodextrin (18DE)” for “PVP 55k”, “fructose, 15% maltodextrin,” for “fructose,”, “for 8” for “for 4”, “crystals.” for “crystals. After 12 weeks 9.6 ppm of (S)-1-(3-(((4-amino-2,2-dioxido-1H-benzo[c][1,2,6]thiadiazin-5-yl)oxy)methyl)piperidin-1-yl)-3-methylbutan-1-one remained in solution.”
A concentrated solution 1 of (S)-1-(3-(((4-amino-2,2-dioxido-1H-benzo[c][1,2,6]thiadiazin-5-yl)oxy)methyl)piperidin-1-yl)-3-methylbutan-1-one at 0.3% (w/w) (3000 ppm) was prepared in water. pH was adjusted to 11 using NaOH to form (S)-1-(3-(((4-amino-2,2-dioxido-1H-benzo[c][1,2,6]thiadiazin-5-yl)oxy)methyl)piperidin-1-yl)-3-methylbutan-1-one sodium salt and obtain an homogeneous solution. […]

CC(C)CC(=O)N1CCC[C@H](COc2cccc3c2C(N)=NS(=O)(=O)N3)C1 [(S)-1-(3-(((4-amino-2,2-dioxido-1H-benzo[c][1,2,6]thiadiazin-5-yl)oxy)methyl)piperidin-1-yl)-3-methylbutan-1-one]
amount remaining in solution (Example 1 (comparative): 30 ppm start, syrup 34 Brix (34% fructose, 0.68% citric acid, 0.1% sodium citrate), pH 2, no polymer, 3° C., after 1 week, first crystals visually observed): 28 ppm
amount remaining in solution (Example 1 (comparative): 30 ppm start, syrup 34 Brix, pH 2, no polymer, 3° C., after 12 weeks): 1.7 ppm
amount remaining in solution (Example 2: 30 ppm start, syrup 34 Brix with 0.03% PVP 55k, 3° C., after 12 weeks): 9.6 ppm
amount maintained in solution (Example 2: 30 ppm start, syrup 34 Brix with 0.03% PVP 55k, 3° C., maintained for 4 weeks, then slight decrease and few crystals): 30 ppm
amount remaining in solution (Example 3: 30 ppm start, syrup 34 Brix with 0.03% PVP 55k and 15% maltodextrin (18DE), 3° C., after 12 weeks): 27.3 ppm
amount maintained in solution (Example 3: 30 ppm start, syrup 34 Brix with 0.03% PVP 55k and 15% maltodextrin (18DE), 3° C., maintained for 8 weeks, then slight decrease and few crystals): 30 ppm
amount maintained in solution (Example 4: 30 ppm start, syrup 34 Brix with 0.03% HPMC (22 kDa), 3° C., maintained for 12 weeks): 30 ppm
amount remaining in solution (Example 10 (comparative): 18 ppm start, syrup 45 Brix, pH 2, no polymer, 3° C., after 7 weeks, first crystals visually observed): 15.8 ppm
amount remaining in solution (Example 10 (comparative): 18 ppm start, syrup 45 Brix, pH 2, no polymer, 3° C., after 14 weeks): 3.6 ppm
amount maintained in solution (Example 11: 18 ppm start, syrup 45 Brix with 0.0009% HPMC (Methocel K99), pH 2, 3° C., maintained for 17 weeks): 18 ppm
amount maintained in solution (Example 12: 18 ppm start, syrup 45 Brix with 0.0009% CMC, pH 2, 3° C., maintained for 16 weeks): 18 ppm
amount remaining in solution (Example 13 (comparative): 18 ppm start, syrup 20 Brix, pH 2, no polymer, 3° C., after 3.5 weeks, crystals visually observed): 14 ppm
amount remaining in solution (Example 13 (comparative): 18 ppm start, syrup 20 Brix, pH 2, no polymer, 3° C., after 18 weeks): 4 ppm
amount maintained in solution (Example 14: 18 ppm start, syrup 20 Brix with 0.0009% HPMC (Methocel K99), pH 2, 3° C., maintained for 18 weeks): 18 ppm
